Results published in ChEMBL document CHEMBL4715719, “Synthesis and biological properties of polyamine modified flavonoids as hepatocellular carcinoma inhibitors” (Eur J Med Chem, 2016).
Active and inactive are the calls of the source. The calls are words filed in the database; no cut-off is given here.

Legend:
HepG2 [1] = assay: Antiproliferative activity against human HepG2 cells assessed as inhibition of cell proliferation at 100 uM measured after 48 hrs by MTT assay relative to control; assay type: functional
HepG2 [2] = assay: Antimigratory activity against human HepG2 cells assessed as inhibition of cell migration measured after 48 hrs by transwell assay; assay type: functional, cell-based; settings: dose 50-70 µM
HepG2 [3] = assay: Antiinvasive activity against human HepG2 cells assessed as inhibition of cell invasion at 50 to 70 uM measured after 48 hrs in presence of aspirin by wound healing assay; assay type: functional, cell-based; settings: dose 50-70 µM
H22 [4] = assay: (§1) Antitumor activity against mouse H22 cells implanted in Kunming mouse assessed as reduction in tumor weight at 10 mg/kg, iv administered for 7 consecutive days starting from day 8 post inoculation and measured after 16 days (reference value: 2.15 +/- 0.51 g); assay type: functional; settings: time 8 day
H22 [5] = assay: as §1, with “Potentiation of DFMO-induced antitumor” for “Antitumor”, “inoculation cotreated with DFMO at 200 mg/kg” for “inoculation”, “1.31” for “2.15”, “0.33” for “0.51”; assay type: functional; settings: time 8 day
H22 [6] = assay: Antitumor activity against mouse H22 cells implanted in Kunming mouse assessed as tumor growth inhibition at 10 mg/kg, iv administered for 7 consecutive days starting from day 8 post inoculation and measured after 16 days relative to control; assay type: functional; settings: 192 h, time 8 day, read-out: TGI
H22 [7] = assay: (§2) Potentiation of DFMO-induced antitumor activity against mouse H22 cells implanted in Kunming mouse assessed as tumor growth inhibition at 10 mg/kg, iv administered for 7 consecutive days starting from day 8 post inoculation cotreated with DFMO at 200 mg/kg and measured after 16 days (reference value: 38.8 %); assay type: functional; settings: 192 h, time 8 day, read-out: TGI
H22 [8] = assay: as §2, with “aspirin-induced” for “DFMO-induced”, “aspirin” for “DFMO”, “10” for “200”, “36” for “38.8”; assay type: functional; settings: 192 h, time 8 day, read-out: TGI
[9] = Toxicity in iv dosed Kunming mouse assessed as maximum tolerated dose; assay type: organism-based; settings: in vivo
H22 [10] = assay: Antimetastatic activity against mouse H22 cells implanted in Kunming mouse assessed as number of metastatic focus at 10 mg/kg, iv administered for 7 consecutive days starting from day 11 post inoculation and measured after 18 days (reference value: 5.73 +/- 14.6); assay type: functional; settings: time 8 day
Mus musculus [11] = assay: Upregulation of phosphorylated p38 in Kunming mouse implanted with mouse H22 cells assessed as activation of p53 measured after 48 hrs by immunofluorescence analysis; assay type: functional; settings: dose 10-30 µM
Mus musculus [12] = assay: Upregulation of phosphorylated JNK in Kunming mouse implanted with mouse H22 cells assessed as activation of p53 measured after 48 hrs in presence of aspirin by immunofluorescence analysis; assay type: functional; settings: dose 10-30 µM
HepG2 [13] = assay: Antiproliferative activity against human HepG2 cells assessed as inhibition of cell proliferation measured after 48 hrs by MTT assay; assay type: functional, cell-based; settings: HepG2, 48 h
[14] = Antiproliferative activity against mouse H22 cells assessed as inhibition of cell proliferation measured after 48 hrs in presence of 800 uM aspirin by MTT assay; assay type: functional, cell-based

With `Cl.Cl.NCCCNCC(=O)NCc1cccc2c(=O)cc(-c3cccc4ccccc34)oc12` the inhibition at 100 µM (HepG2 [1]) was 84.2%, the inhibition (HepG2 [2]) was “Dose-dependent effect” and the inhibition (HepG2 [3]) was “Active”. The Activity (H22 [4]) was 1.3 g, the Activity (H22 [5]) was 1.22 g and the inhibition in vivo at 10 mg/kg (H22 [6]) was 39.2%. For the same compound, the inhibition in vivo at 10 mg/kg (H22 [7]) was 43%, the inhibition in vivo at 10 mg/kg (H22 [8]) was 69.2% and the MTD [9] was 20 mg/kg. The Activity (H22 [10]) was 40.5, the Activity (Mus musculus [11]) was “Dose-dependent effect” and the Activity (Mus musculus [12]) was “Active”. For the same compound, the IC50 (HepG2 [13]) was 65 µM and the IC50 [14] was 21.1 µM.
